Test results from patent US20090099212A1, “A3 ADENOSINE RECEPTOR ANTAGONISTS” (priority 2007, published 2009).

What was measured:
A3 adenosine receptor = biological target: T1, A3 adenosine receptor (Homo sapiens, UniProt P0DMS8); experiment: Radioligand binding competition, A3 AdoR (125I-AB-MECA), membranes of HEK-A3 or CHO-A3 cells
T1 construct: expressed in transfected cells; host or cells: HEK-293 or CHO cells (HEK-A3 or CHO-A3), membranes
T1 sequence (P0DMS8 1-318): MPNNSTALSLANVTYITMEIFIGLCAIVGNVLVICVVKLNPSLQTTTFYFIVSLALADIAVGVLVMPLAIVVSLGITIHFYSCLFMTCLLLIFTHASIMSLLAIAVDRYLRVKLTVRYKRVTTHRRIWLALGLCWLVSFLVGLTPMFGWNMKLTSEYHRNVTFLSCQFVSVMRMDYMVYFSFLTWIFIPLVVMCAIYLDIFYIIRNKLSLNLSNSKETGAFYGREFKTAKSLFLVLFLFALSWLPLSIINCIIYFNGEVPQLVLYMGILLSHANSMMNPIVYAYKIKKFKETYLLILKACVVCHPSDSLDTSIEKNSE
Procedure: The cDNAs for human A1, A2A, A2B or A3 AdoRs were prepared by RT-PCR from total RNA of human cells or tissues and sequenced on both strands. The expression vector containing each of these cDNAs and a second vector containing a neomycin or puromycin-resistance gene were introduced to HEK-293 or CHO cells by Lipofectin-Plus (Life Technology). Colonies were selected by growing transfected cells in the presence of neomycin or puromycin. Stably transfected cells were maintained in Dulbecco's modified Eagle's medium (DMEM) or F-12 medium with 10% fetal bovine serum, 100 μg/ml penicillin, 100 μg/ml streptomycin and appropriate concentrations of neomycin or puromycin. These stably transfected cells were referred to as HEK-“AdoR” or CHO-“AdoR” depending on the receptors that they express. For example, cells that were transfected with A3 AdoRs were referred to as HEK-A3 or CHO-A3.
Monolayers of transfected cells were washed with phosphate buffered saline (PBS) and harvested in a buffer containing 10 mM HEPES (pH 7.4), 10 mM EDTA and protease inhibitors. The cells were homogenized in polytron for 1 minute at setting 4 and centrifuged at 29000 g for 15 minutes at 4° C. The cell pellets were washed with a buffer containing 10 mM HEPES (pH7.4), 1 mM EDTA and protease inhibitors, and were resuspended in the same buffer supplemented with 10% sucrose. Frozen aliquots were kept at −80° C.
The affinities of compounds for A1, A2A, A2B or A3 AdoRs were determined in competition studies using radioligands such as ^3H-CPX (A1 antagonist), or ^3H-CCPA (A1 agonist), ^3H-ZM241385 (A2A antagonist) or ^3H-CGS21680 (A2A agonist), ^3H-ZM241385 (A2B antagonist) or ^125I-AB-MECA (A3 agonist) and membranes of corresponding transfected cells. For example, to determine the affinity for A3 AdoRs, the competition assays were started by mixing 0.2 nM ^125I-AB-MECA with various concentrations of test compounds and 25 ug membrane proteins of HEK-A3 or CHO-A3 in TEM buffer (50 mM Tris, 1 mM EDTA and 10 mM MgCl2) supplemented with 1 U/ml adenosine deaminase. The assays were incubated for 90 minutes, stopped by filtration onto GF/B filter plates using Packard Harvester and washed four times with ice-cold TM buffer (10 mM Tris, 1 mM MgCl2, pH 7.4). The amounts of radioligands that bound to the GF/B filter plates were determined by scintillation counting. Nonspecific binding was determined in the presence of 10 μM R-PIA (phenylisopropyladenosine) or 1 μM IB-MECA. Bmax and KD values were calculated using GraphPad software.

A1 adenosine receptor = biological target: T2, A1 adenosine receptor (Homo sapiens, UniProt P30542); experiment: Radioligand binding competition, A1 AdoR (3H-CPX or 3H-CCPA), membranes of transfected cells; conditions: Table 2
T2 construct: expressed in transfected cells; host or cells: HEK-293 or CHO cells, membranes
T2 sequence (P30542 1-326): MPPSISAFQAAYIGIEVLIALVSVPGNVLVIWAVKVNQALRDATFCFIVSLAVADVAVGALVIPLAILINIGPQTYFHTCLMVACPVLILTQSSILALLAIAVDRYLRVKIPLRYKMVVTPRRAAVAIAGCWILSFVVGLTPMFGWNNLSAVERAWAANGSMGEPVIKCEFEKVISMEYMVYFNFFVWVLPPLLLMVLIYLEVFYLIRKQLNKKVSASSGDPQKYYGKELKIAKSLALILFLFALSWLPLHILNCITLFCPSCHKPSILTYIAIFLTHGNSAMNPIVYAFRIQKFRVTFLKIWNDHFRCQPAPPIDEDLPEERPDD
Procedure: (§1) The cDNAs for human A1, A2A, A2B or A3 AdoRs were prepared by RT-PCR from total RNA of human cells or tissues and sequenced on both strands. The expression vector containing each of these cDNAs and a second vector containing a neomycin or puromycin-resistance gene were introduced to HEK-293 or CHO cells by Lipofectin-Plus (Life Technology). Colonies were selected by growing transfected cells in the presence of neomycin or puromycin. Stably transfected cells were maintained in Dulbecco's modified Eagle's medium (DMEM) or F-12 medium with 10% fetal bovine serum, 100 μg/ml penicillin, 100 μg/ml streptomycin and appropriate concentrations of neomycin or puromycin. […]
(§2) The affinities of compounds for A1, A2A, A2B or A3 AdoRs were determined in competition studies using radioligands such as ^3H-CPX (A1 antagonist), or ^3H-CCPA (A1 agonist), ^3H-ZM241385 (A2A antagonist) or ^3H-CGS21680 (A2A agonist), ^3H-ZM241385 (A2B antagonist) or ^125I-AB-MECA (A3 agonist) and membranes of corresponding transfected cells. […] The amounts of radioligands that bound to the GF/B filter plates were determined by scintillation counting. Nonspecific binding was determined in the presence of 10 μM R-PIA (phenylisopropyladenosine) or 1 μM IB-MECA. Bmax and KD values were calculated using GraphPad software.

A2A adenosine receptor = biological target: T3, A2A adenosine receptor (Homo sapiens, UniProt P29274); experiment: Radioligand binding competition, A2A AdoR (3H-ZM241385 or 3H-CGS21680), membranes of transfected cells; conditions: Table 2
T3 construct: expressed in transfected cells; host or cells: HEK-293 or CHO cells, membranes
Procedure: as §1, §2

[1] = Table 1, 0.2 nM 125I-AB-MECA, HEK-A3 or CHO-A3 membranes
[2] = Table 2, 125I-AB-MECA competition

T3 sequence (P29274 whole entry): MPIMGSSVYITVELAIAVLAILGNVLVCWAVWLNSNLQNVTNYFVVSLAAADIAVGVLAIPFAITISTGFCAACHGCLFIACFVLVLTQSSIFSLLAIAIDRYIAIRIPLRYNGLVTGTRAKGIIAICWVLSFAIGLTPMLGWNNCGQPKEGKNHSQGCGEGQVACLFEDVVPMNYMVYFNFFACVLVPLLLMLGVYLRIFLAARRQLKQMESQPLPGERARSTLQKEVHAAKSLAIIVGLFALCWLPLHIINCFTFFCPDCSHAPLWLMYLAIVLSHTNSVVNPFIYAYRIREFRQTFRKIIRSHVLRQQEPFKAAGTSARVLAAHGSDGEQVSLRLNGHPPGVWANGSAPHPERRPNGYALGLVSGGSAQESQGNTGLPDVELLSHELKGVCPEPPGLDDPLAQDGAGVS

Molecule | Ki (A3 adenosine receptor; [1]) [nM] | also measured
CCn1c(-n2cc(-c3cccc(C(F)(F)F)c3)cn2)nc2c(N)nc(NCc3ccccc3)nc21 [(6-amino-9-ethyl-8-{4-[3-(trifluoromethyl)phenyl]pyrazolyl}purin-2-yl)benzylamine] | 1480 | –
CCn1c(-n2cc(C)cn2)nc2c(NC(=O)C(C)(C)C)nc(NCc3ccccc3)nc21 [N-{9-ethyl-8-(4-methylpyrazolyl)-2-[benzylamino]purin-6-yl}-2,2-dimethylpropanamide] | 18.6 | –
(6-amino-9-propyl-8-pyrazolylpurin-2-yl)[2-(4-fluorophenyl)ethyl]amine | 210 | –
((1S)-1-phenylethyl)[6-amino-8-(4-methylpyrazolyl)-9-propylpurin-2-yl]amine | – | Ki (A3 adenosine receptor; [2]): 0.9 nM
N-{2-[(2-phenylethyl)amino]-9-propyl-8-pyrazolylpurin-6-yl}[3-(trifluoromethyl)phenyl]carboxamide | 910 | –
N-{2-[(2-phenylethyl)amino]-9-propyl-8-pyrazolylpurin-6-yl}[4-(trifluoromethyl)phenyl]carboxamide | 3120 | –

Continued, in another order:

Ki (A3 adenosine receptor; [1]) [nM] | Molecule | also measured
7 | CCn1c(-n2cccn2)nc2c(N)nc(NCc3ccccc3)nc21 [(6-amino-9-ethyl-8-pyrazolylpurin-2-yl)benzylamine] | –
2 | CCn1c(-n2cc(C)cn2)nc2c(N)nc(NCc3ccccc3)nc21 [[6-amino-9-ethyl-8-(4-methylpyrazolyl)purin-2-yl]benzylamine] | Ki (A1 adenosine receptor): 225 nM; Ki (A2A adenosine receptor): 2040 nM
52 | (6-amino-9-propyl-8-pyrazolylpurin-2-yl)(2-phenylethyl)amine | –
112 | (6-amino-9-propyl-8-pyrazolylpurin-2-yl)[2-(2,5-dimethoxyphenyl)ethyl]amine | –
82 | (6-amino-9-propyl-8-pyrazolylpurin-2-yl)[2-(3-fluorophenyl)ethyl]amine | –
3 | N-{9-ethyl-2-[benzylamino]-8-pyrazolylpurin-6-yl}-2-methoxyacetamide | Ki (A3 adenosine receptor; [2]): 3 nM; Ki (A1 adenosine receptor): 3950 nM
